What was measured:
AhR = target: T1, AhR (Homo sapiens, UniProt P35869); test: AhR nuclear translocation assay in HepG2 cells; assay type: cell-based; details: for AhR nuclear staining (% positive cells) 2 h: vehicle 15.6; for AhR nuclear staining (% positive cells) 24 h: vehicle 3.4
T1 construct: endogenous in cells; host or cells: HepG2
T1 sequence (P35869 11-848): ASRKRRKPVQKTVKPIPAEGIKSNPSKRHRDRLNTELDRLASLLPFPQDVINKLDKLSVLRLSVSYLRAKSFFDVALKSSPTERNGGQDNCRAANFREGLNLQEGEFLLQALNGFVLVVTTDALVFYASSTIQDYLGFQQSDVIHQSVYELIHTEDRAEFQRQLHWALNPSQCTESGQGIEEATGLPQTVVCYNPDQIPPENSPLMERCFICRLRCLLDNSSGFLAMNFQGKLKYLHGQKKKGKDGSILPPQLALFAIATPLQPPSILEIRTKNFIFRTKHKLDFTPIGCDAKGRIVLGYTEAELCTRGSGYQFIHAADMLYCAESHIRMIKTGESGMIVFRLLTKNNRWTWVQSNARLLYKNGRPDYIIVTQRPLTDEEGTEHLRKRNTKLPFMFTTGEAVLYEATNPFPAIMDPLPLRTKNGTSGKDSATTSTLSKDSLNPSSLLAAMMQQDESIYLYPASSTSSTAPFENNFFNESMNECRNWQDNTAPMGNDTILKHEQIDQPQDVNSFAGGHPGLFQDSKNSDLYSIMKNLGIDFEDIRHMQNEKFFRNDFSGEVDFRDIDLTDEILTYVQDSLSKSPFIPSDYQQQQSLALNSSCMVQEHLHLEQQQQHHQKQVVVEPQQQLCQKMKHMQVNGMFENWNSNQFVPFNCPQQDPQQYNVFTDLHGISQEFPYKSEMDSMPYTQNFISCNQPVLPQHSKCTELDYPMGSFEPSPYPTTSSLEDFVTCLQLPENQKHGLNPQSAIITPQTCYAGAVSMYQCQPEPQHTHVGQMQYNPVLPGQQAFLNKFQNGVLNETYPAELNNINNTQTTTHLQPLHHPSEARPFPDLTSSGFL
Protocol: HepG2 cells were plated in Lab-Tek II Chamber slides (Nalgene, Rochester, NY) at a seeding density of 50,000 cells/well. The cells were allowed to attach overnight and were treated for 2 h or 24 h with 10 or 40 μM A-998679, 2 μM 3-methylchloranthrene (3-MC) as a positive control, or 0.1% (v/v) DMSO vehicle. The cells were fixed in fresh 3% paraformaldehyde solution in PBS followed by a PBS wash, and were then permeabilized for 5 min using 0.2% Triton X-100 in PBS followed by another PBS wash. The cells were then incubated with blocking buffer consisting of 1% BSA/PBS solutions and immediately incubated with a 1:50 dilution of rabbit polyclonal antibody to AhR (Abcam, Cambridge, MA catalog# 63636) for 1 h at 37°C. Cells were then washed with PBS, re-blocked for 10 min, and stained with an Alexa 546 donkey anti-rabbit secondary antibody (diluted 1:200; Invitrogen Life Technologies) for 45 min at 37°C. The cells were then washed with PBS, stained with 0.5 μM Hoescht solution for 15 min, and again washed with PBS. The chamber slides were sealed and examined under the microscope. Images were acquired with a SPOT RT SE digital camera (Diagnostic Instruments, Sterling Heights, MI) mounted on a Leica (Wetzlar, Germany) DMIRE inverted florescence microscope using a 20× objective. Image acquisition was done using Metamorph® software (Molecular Devices, Sunnyvale, CA) and percent translocation of the AhR probe was quantitated using MetaXpress (Molecular Devices). Twenty microscope fields were evaluated per well (~3000–6000 cells/well).

rat Cyp 2A2 = target: T2, rat Cyp 2A2 (Rattus norvegicus, UniProt P15149); test: Recombinant rat Cyp phenotype profiling, 2A2; assay type: in vitro ADME; details: 60 min
T2 construct: purchased BD Gentest; host or cells: baculovirus infected insect cells
Protocol: Identification of the drug metabolizing enzymes (DMEs) of A-998679 was studied in cDNA expressed recombinant enzymes prepared from baculovirus infected insect cells over-expressing rat Cyp isoforms (BD Gentest, Woburn, MA) as listed in Table 2. Incubations were conducted in duplicate using Supersomes. The incubation mixture contained 100 pmol/ml of enzymes, except for Cyp1a1 (200 pmol/ml), 0.1 or 0.21 μM of [^3H]A-998679 in 100 mM phosphate buffer (pH 7.4). Reactions were initiated with the addition of NADPH at a final concentration of 1 mM and incubated at 37°C for 60 min. At the end of the incubation period, the incubations were terminated by the addition of acetonitrile/ethanol (50/50, v/v) solution. Insect control samples lacking expressed enzyme were used as negative control. The degree of metabolism of A-998679 was assessed by percent of parent remaining using the radio-HPLC method described below.
Radiolabeled components from the above assays were profiled following separation by HPLC with on line radioflow detector. The system consisted of an Agilent 1100 Series quaternary pump and autosampler connected to a Packard 500TR flow scintillation detector. The data were processed using the Radiomatic™ Flo-one® software v3.65. The scintillant (Perkin Elmer FLO-SCINT™ III) flow was maintained at 3 ml/min. […]

T2 sequence (P15149 whole entry): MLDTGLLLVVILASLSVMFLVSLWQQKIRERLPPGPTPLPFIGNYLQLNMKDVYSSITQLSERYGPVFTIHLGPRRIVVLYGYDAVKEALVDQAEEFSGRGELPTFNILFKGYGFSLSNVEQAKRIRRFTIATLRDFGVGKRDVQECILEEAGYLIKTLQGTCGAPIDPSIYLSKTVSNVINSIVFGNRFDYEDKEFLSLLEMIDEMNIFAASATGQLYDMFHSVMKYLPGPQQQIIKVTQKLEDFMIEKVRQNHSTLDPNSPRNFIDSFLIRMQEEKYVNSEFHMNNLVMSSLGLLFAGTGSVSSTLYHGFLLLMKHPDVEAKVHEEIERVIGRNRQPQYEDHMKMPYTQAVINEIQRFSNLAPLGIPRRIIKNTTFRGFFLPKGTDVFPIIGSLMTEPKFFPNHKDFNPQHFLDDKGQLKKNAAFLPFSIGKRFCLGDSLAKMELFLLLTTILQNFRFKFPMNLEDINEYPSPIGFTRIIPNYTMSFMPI

## N#Cc1cccc(-c2noc(-c3cccnc3)n2)c1 [A-998679, 3-(5-pyridin-3-yl-1,2,4-oxadiazol-3-yl) benzonitrile]
AhR; 10 μM
  AhR nuclear staining (% positive cells) 2 h: 18.8 % positive cells
  AhR nuclear staining (% positive cells) 24 h: 4.5 % positive cells
AhR; 40 μM
  AhR nuclear staining (% positive cells) 2 h: 29.6 % positive cells
  AhR nuclear staining (% positive cells) 24 h: 6.3 % positive cells
Rat Cyp 2A2; recombinant rat Cyp 2A2, 0.10 μM
  % parent remaining: 90.2%
Rat Cyp 2A2; recombinant rat Cyp 2A2, 0.21 μM
  % parent remaining: 77.8%

Reference: article PMC3481155, “AhR activation underlies the CYP1A autoinduction by A-998679 in rats” (Frontiers in Genetics, 2012)
